Measurements published in patent US9681664B2, “Macrocyclic picolinamides as fungicides” (Dow Agrosciences LLC, priority 2012, dated 2017).
Where two headings read alike, the source gives them in different places.

Assays:
Type in all cases: in vivo
Phakopsora pachyrhizi = experiment: Asian soybean rust (PHAKPA) disease control; settings: topical, high volume
Outline: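 Compounds in acetone diluted with nine volumes water containing 0.011% Tween 20, sprayed to run-off on two-week-old Williams 82 soybean seedlings, inoculated 3 days before or 1 day after treatment. Plants held 24 h in dark dew room at 22 °C, 100% RH, then at 23 °C; disease severity scored on sprayed leaves.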

Uncinula necator = experiment: Grape powdery mildew (UNCINE) disease control; settings: Erysiphe necator, 24 h, High volume application, 1 Day Protectant, read-out: UNCINE 1 DP disease control
Description: Technical grades of materials were dissolved in acetone, which were then mixed with nine volumes of water containing 110 ppm Triton X-100. The fungicide solutions were applied onto wheat seedlings using an automated booth sprayer to run-off. All sprayed plants were allowed to air dry prior to further handling. All fungicides were evaluated using the aforementioned method for their activity vs. all target diseases. Wheat leaf blotch and brown rust activity were also evaluated using track spray applications, in which case the fungicides were formulated as EC formulations, containing 0.1% Trycol 5941 in the spray solutions. Grape seedlings (variety Carignane) were grown in soil-less Metro mix, with one plant per pot, and used in the test when approximately one month old. Plants were inoculated 24 hr after fungicide treatment by shaking spores from infected leaves over test plants. Plants were maintained in a greenhouse set at 20° C. until disease was fully developed. Fungicide formulation, application and disease assessment on the sprayed leaves followed the procedures as described in the Example A.

Leptosphaeria nodorum = experiment: Wheat glume blotch (LEPTNO) disease control; settings: Parastagonospora nodorum, 24 h, High volume application, 1 Day Protectant, read-out: LEPTNO 1 DP disease control
Description: Technical grades of materials were dissolved in acetone, which were then mixed with nine volumes of water containing 110 ppm Triton X-100. The fungicide solutions were applied onto wheat seedlings using an automated booth sprayer to run-off. All sprayed plants were allowed to air dry prior to further handling. All fungicides were evaluated using the aforementioned method for their activity vs. all target diseases. Wheat leaf blotch and brown rust activity were also evaluated using track spray applications, in which case the fungicides were formulated as EC formulations, containing 0.1% Trycol 5941 in the spray solutions. Wheat plants (variety Yuma) were grown from seed in a greenhouse in 50% mineral soil/50% soil-less Metro mix until the first leaf was fully emerged, with 7-10 seedlings per pot. These plants were inoculated with an aqueous spore suspension of Leptosphaeria nodorum 24 hr after fungicide treatments. After inoculation the plants were kept in 100% relative humidity (one day in a dark dew chamber followed by two days in a lighted dew chamber at 20° C.) to permit spores to germinate and infect the leaf. The plants were then transferred to a greenhouse set at 20° C. for disease to develop. Fungicide formulation, application and disease assessment followed the procedures as described in the Example A.

Erysiphe cichoracearum = experiment: Powdery mildew of cucumber (ERYSCI) disease control; settings: Golovinomyces cichoracearum, 24 h, 1 Day Protectant, high volume, read-out: Disease Control ERYSCI 1 DP
Description: Technical grades of materials were dissolved in acetone, which were then mixed with nine volumes of water containing 110 ppm Triton X-100. The fungicide solutions were applied onto wheat seedlings using an automated booth sprayer to run-off. All sprayed plants were allowed to air dry prior to further handling. All fungicides were evaluated using the aforementioned method for their activity vs. all target diseases. Wheat leaf blotch and brown rust activity were also evaluated using track spray applications, in which case the fungicides were formulated as EC formulations, containing 0.1% Trycol 5941 in the spray solutions. Cucumber seedlings (variety Bush Pickle) were grown in soil-less Metro mix, with one plant per pot, and used in the test when 12 to 14 days old. Plants were inoculated with a spore suspension 24 hr following fungicide treatments. After inoculation the plants remained in the greenhouse set at 20° C. until disease was fully expressed. Fungicide formulation, application and disease assessment on the sprayed leaves followed the procedures as described in the Example A.

[1] = system: Blumeria graminis f. sp. hordei; Synonym: Erysiphe graminis f. sp. hordei; experiment: Barley powdery mildew (ERYSGH) disease control; settings: 24 h, 1 Day Protectant, high volume, read-out: Disease Control ERYSGH 1 DP
Description: Technical grades of materials were dissolved in acetone, which were then mixed with nine volumes of water containing 110 ppm Triton X-100. The fungicide solutions were applied onto wheat seedlings using an automated booth sprayer to run-off. All sprayed plants were allowed to air dry prior to further handling. All fungicides were evaluated using the aforementioned method for their activity vs. all target diseases. Wheat leaf blotch and brown rust activity were also evaluated using track spray applications, in which case the fungicides were formulated as EC formulations, containing 0.1% Trycol 5941 in the spray solutions. Barley seedlings (variety Harrington) were propagated in soil-less Metro mix, with each pot having 8 to 12 plants, and used in the test when first leaf was fully emerged. Test plants were inoculated by dusting with infected stock plants 24 hr after fungicide treatments. After inoculation the plants were kept in a greenhouse set at 20° C. for disease to develop. Fungicide formulation, application and disease assessment on the sprayed leaves followed the procedures as described in the Example A.

[2] = system: Mycosphaerella graminicola; Anamorph: Septoria tritici; experiment: Leaf blotch of wheat (SEPTTR) disease control on wheat seedlings; settings: Zymoseptoria tritici, Wheat Leaf Blotch, low volume application, 121.5 g/H
Outline: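 Protective or curative format: Septoria tritici inoculation either preceded or followed fungicide application to first-leaf Yuma wheat. Severity scored 0–100%; control expressed versus untreated.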

[3] = 24 h, 1 Day Protectant, read-out: Disease Control PHAKPA 1DP
[4] = 72 h, 3 Day Curative, read-out: Disease Control PHAKPA 3DC
[5] = 24 h, 1 Day Protectant, read-out: Disease Control SEPTTR 1 DP 121.5 g/H
[6] = 72 h, 3 Day Curative, read-out: Disease Control SEPTTR 3 DC 121.5 g/H

Row | SMILES | pest or weed control at 25 ppm (Phakopsora pachyrhizi; [3]) [%] | pest or weed control at 25 ppm (Phakopsora pachyrhizi; [4]) [%] | pest or weed control at 100 ppm (Uncinula necator) [%] | pest or weed control at 100 ppm (Leptosphaeria nodorum) [%] | pest or weed control at 100 ppm (Erysiphe cichoracearum) [%] | pest or weed control at 100 ppm [1] [%] | pest or weed control at 121.5 g/ha [2, 5] [%] | pest or weed control at 121.5 g/ha [2, 6] [%]
1 | COc1ccnc(C(=O)N[C@H]2CCC[C@H](Oc3ccccc3)[C@@H](OC)[C@H](C)OC2=O)c1OCOC(C)=O [F252] | 80 to 100 | 0 to 80 | 0 to 80 | 80 to 100 | < 0 | 0 to 80 | 0 to 80 | 0 to 80
2 | C=C(C)CO[C@H]1CCC[C@H](NC(=O)c2nccc(OC)c2OCOC(=O)C(C)C)C(=O)O[C@@H](C)[C@@H]1OC [F253] | 0 to 80 | < 0 | 0 to 80 | 80 to 100 | < 0 | 0 to 80 | < 0 | < 0
3 | COc1ccnc(C(=O)N[C@H]2CCC[C@H](OCC(C)C)[C@@H](OC)[C@H](C)OC2=O)c1OCOC(=O)C(C)C [F254] | 80 to 100 | 0 to 80 | 0 to 80 | 80 to 100 | < 0 | 0 to 80 | < 0 | < 0
4 | COc1ccnc(C(=O)N[C@H]2CCC[C@H](Oc3ccccc3)[C@@H](OC)[C@H](C)OC2=O)c1OCOC(=O)C(C)C [F255] | 80 to 100 | 0 to 80 | 80 to 100 | 80 to 100 | < 0 | 0 to 80 | 0 to 80 | 0 to 80
